The subject of this series is mice. Briefly: Safety and toxicity studies in mice. The class given is in vivo. To be noted: 0.5, 1 and 2 g/kg. On the procedure: The clinical dose of HT is in the range of 1-2000 mg/day, more preferably in the range of 5-500 mg/day and most preferably 10-100 mg/day.

For the molecule `OCCc1ccc(O)c(O)c1` [HT, hydroxytyrosol], the “clinical or pathological toxicity” value is recorded as “no clinical or pathological toxicity”.

Values taken from patent US20060177530A1, “Method of treating diabetes type II” (priority 2003, published 2006).
